Assay results: the Kinase Knowledgebase extract (Sharma et al. 2016)

target: PIK3CG (human) (UniProt P48736); test: Inhibition of PIK3CG Kinase Activity
Sequence (P48736 whole entry, looked up): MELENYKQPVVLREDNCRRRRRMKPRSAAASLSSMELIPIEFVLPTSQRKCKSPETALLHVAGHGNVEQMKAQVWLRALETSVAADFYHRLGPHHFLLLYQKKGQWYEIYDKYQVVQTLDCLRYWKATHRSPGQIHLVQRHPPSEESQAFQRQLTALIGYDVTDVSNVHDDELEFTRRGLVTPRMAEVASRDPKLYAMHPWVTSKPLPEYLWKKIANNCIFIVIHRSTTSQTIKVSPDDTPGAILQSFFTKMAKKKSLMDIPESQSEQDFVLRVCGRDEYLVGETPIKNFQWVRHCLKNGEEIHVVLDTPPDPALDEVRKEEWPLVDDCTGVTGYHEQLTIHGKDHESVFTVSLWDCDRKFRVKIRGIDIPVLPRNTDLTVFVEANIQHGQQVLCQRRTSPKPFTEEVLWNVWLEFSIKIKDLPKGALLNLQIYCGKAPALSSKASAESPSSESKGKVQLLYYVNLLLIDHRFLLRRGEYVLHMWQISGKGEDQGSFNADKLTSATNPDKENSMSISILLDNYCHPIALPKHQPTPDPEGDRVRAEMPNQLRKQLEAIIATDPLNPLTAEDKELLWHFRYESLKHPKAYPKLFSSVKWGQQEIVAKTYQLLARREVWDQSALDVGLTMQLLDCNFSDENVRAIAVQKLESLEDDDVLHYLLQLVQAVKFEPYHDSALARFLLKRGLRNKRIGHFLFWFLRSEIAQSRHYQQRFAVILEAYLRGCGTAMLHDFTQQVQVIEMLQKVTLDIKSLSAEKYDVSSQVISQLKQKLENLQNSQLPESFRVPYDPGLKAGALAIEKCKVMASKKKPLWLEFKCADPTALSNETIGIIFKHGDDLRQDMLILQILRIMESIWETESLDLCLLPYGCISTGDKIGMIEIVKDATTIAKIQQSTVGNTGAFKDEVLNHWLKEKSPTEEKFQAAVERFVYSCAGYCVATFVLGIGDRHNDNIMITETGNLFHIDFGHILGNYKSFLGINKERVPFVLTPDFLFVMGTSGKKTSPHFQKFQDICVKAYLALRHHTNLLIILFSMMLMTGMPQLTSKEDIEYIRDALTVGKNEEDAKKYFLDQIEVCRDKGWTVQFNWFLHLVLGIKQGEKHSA

IC50, < 800 nM:
CC(C)c1cnc(CCNC(=O)Nc2nc3c(s2)-c2c(cnn2-c2ccccc2Cl)C3)o1, Cn1cc(CNC(=O)Nc2nc3c(s2)-c2c(cnn2-c2ccccc2C(F)(F)F)C3)cn1, O=C(NCC1CC1)Nc1nc2c(s1)-c1c(cnn1-c1ccccc1C(F)(F)F)C2, O=C(NCC1CCCN(c2ncccn2)C1)Nc1nc2c(s1)-c1c(cnn1-c1ccccc1Cl)C2 (configuration not stated), CCn1cnc(CCNC(=O)Nc2nc3c(s2)-c2c(cnn2-c2cc(F)ccc2C(F)(F)F)C3)c1, O=C(NCc1ccccc1)Nc1nc2c(s1)-c1c(cnn1-c1ccccc1Cl)C2, O=C(NCCc1ccccc1)Nc1nc2c(s1)-c1c(cnn1-c1ccccc1Cl)C2, Cc1cc(-c2ccco2)n(CCNC(=O)Nc2nc3c(s2)-c2c(cnn2-c2ccccc2C(F)(F)F)C3)n1, CC(C)(C)n1nc(CCNC(=O)Nc2nc3c(s2)-c2c(cnn2-c2ccccc2C(F)(F)F)C3)cc1N, O=C(NCc1cc(C2CC2)n[nH]1)Nc1nc2c(s1)-c1c(cnn1-c1cccc(F)c1C(F)(F)F)C2, CC(C)(C)OC(=O)CCNC(=O)Nc1nc2c(s1)-c1c(cnn1-c1ccccc1C(F)(F)F)C2, NC(=O)Nc1nc2c(s1)-c1c(cnn1-c1ccccc1C(F)(F)F)C2, CC(C)(C)OC(=O)N1CCCC(CNC(=O)Nc2nc3c(s2)-c2c(cnn2-c2ccccc2Cl)C3)C1 (configuration not stated), CC(C)c1noc(CCNC(=O)Nc2nc3c(s2)-c2c(cnn2-c2ccccc2C(F)(F)F)C3)n1, CN(Cc1ccco1)C(=O)Nc1nc2c(s1)-c1c(cnn1-c1ccccc1C(F)(F)F)C2, CC(C)(C)OC(=O)N1CCC[C@@H]1CNC(=O)Nc1nc2c(s1)-c1c(cnn1-c1ccccc1C(F)(F)F)C2, Nc1cc(CCNC(=O)Nc2nc3c(s2)-c2c(cnn2-c2ccccc2C(F)(F)F)C3)nn1-c1ccccc1, NC(=O)Nc1nc2c(s1)-c1c(cnn1-c1ccccc1Br)C2, CC(C)(C)OC(=O)NC1CCN(C(=O)Nc2nc3c(s2)-c2c(cnn2-c2ccccc2Cl)C3)C1 (configuration not stated), CC(C)(CCn1c(=O)[nH]c2ccccc21)NC(=O)Nc1nc2c(s1)-c1c(cnn1-c1ccccc1C(F)(F)F)C2, CCc1cnc(CCNC(=O)Nc2nc3c(s2)-c2c(cnn2-c2cc(Cl)ccc2Cl)C3)o1, Cn1nc(CCNC(=O)Nc2nc3c(s2)-c2c(cnn2-c2ccccc2C(F)(F)F)C3)cc1N, O=C(NCc1ccoc1)Nc1nc2c(s1)-c1c(cnn1-c1ccccc1C(F)(F)F)C2, O=C(NCCc1nc(C2CC2)no1)Nc1nc2c(s1)-c1c(cnn1-c1ccccc1Cl)C2, O=C(O)CC1(CNC(=O)Nc2nc3c(s2)-c2c(cnn2-c2ccccc2Cl)C3)CCCCC1, CC(C)c1noc(CCNC(=O)Nc2nc3c(s2)-c2c(cnn2-c2ccccc2Cl)C3)n1, CC(C)(C)OC(=O)N1CCC[C@@H]1CNC(=O)Nc1nc2c(s1)-c1c(cnn1-c1ccccc1Cl)C2, CN(C)C(=O)Nc1nc2c(s1)-c1c(cnn1-c1ccccc1Br)C2, O=C1CCC(NC(=O)Nc2nc3c(s2)-c2c(cnn2-c2ccccc2Cl)C3)C(c2ccccc2)N1 (configuration not stated), Cc1cc(=O)n(CCNC(=O)Nc2nc3c(s2)-c2c(cnn2-c2ccccc2C(F)(F)F)C3)[nH]1, CNC(=O)c1ccc(-n2ncc3c2-c2sc(NC(=O)NCc4cc(C5CC5)n[nH]4)nc2C3)c(C(F)(F)F)c1, NC(=O)Nc1nc2c(s1)-c1c(cnn1-c1cccc(F)c1C(F)(F)F)C2, CCOC(=O)CNC(=O)Nc1nc2c(s1)-c1c(cnn1-c1ccccc1C(F)(F)F)C2, NC(=O)c1cccc(CNC(=O)Nc2nc3c(s2)-c2c(cnn2-c2ccccc2Cl)C3)c1, CC(C)(C)CCNC(=O)Nc1nc2c(s1)-c1c(cnn1-c1ccccc1Cl)C2, Cn1cc(CNC(=O)Nc2nc3c(s2)-c2c(cnn2-c2ccccc2Cl)C3)cn1, CCN1CCC[C@@H]1CNC(=O)Nc1nc2c(s1)-c1c(cnn1-c1ccccc1Cl)C2, Nc1cc(CCNC(=O)Nc2nc3c(s2)-c2c(cnn2-c2ccccc2C(F)(F)F)C3)nn1CCO, CC(C)n1nc(CCNC(=O)Nc2nc3c(s2)-c2c(cnn2-c2ccccc2C(F)(F)F)C3)cc1N, CC(C)(C)OC(=O)CC1(O)CCN(C(=O)Nc2nc3c(s2)-c2c(cnn2-c2ccccc2Cl)C3)CC1, Nc1cc(CNC(=O)Nc2nc3c(s2)-c2c(cnn2-c2ccccc2C(F)(F)F)C3)nn1C1CCCC1, CCCNC(=O)Nc1nc2c(s1)-c1c(cnn1-c1ccccc1Br)C2, CCOC(=O)CCNC(=O)Nc1nc2c(s1)-c1c(cnn1-c1ccccc1Br)C2, Cc1cc(-c2cccnc2)nn1CCNC(=O)Nc1nc2c(s1)-c1c(cnn1-c1ccccc1C(F)(F)F)C2, CC(C)(O)Cn1cnc(CCNC(=O)Nc2nc3c(s2)-c2c(cnn2-c2ccccc2C(F)(F)F)C3)c1, O=C(Nc1nc2c(s1)-c1c(cnn1-c1ccccc1Cl)C2)N1CCCC(C(O)c2ccccc2)C1 (configuration not stated), Nc1cc(CCNC(=O)Nc2nc3c(s2)-c2c(cnn2-c2ccccc2C(F)(F)F)C3)[nH]n1, CC(C)CCNC(=O)Nc1nc2c(s1)-c1c(cnn1-c1ccccc1Cl)C2, CCc1cc(CC)n(CCNC(=O)Nc2nc3c(s2)-c2c(cnn2-c2ccccc2C(F)(F)F)C3)n1, Nc1cc(CNC(=O)Nc2nc3c(s2)-c2c(cnn2-c2ccccc2C(F)(F)F)C3)[nH]n1, O=C(NCc1nnn[nH]1)Nc1nc2c(s1)-c1c(cnn1-c1ccccc1Br)C2, Nc1cc(CCNC(=O)Nc2nc3c(s2)-c2c(cnn2-c2ccccc2C(F)(F)F)C3)nn1C1CCN(Cc2ccccc2)CC1, CC(C)n1nc(CNC(=O)Nc2nc3c(s2)-c2c(cnn2-c2ccccc2C(F)(F)F)C3)cc1N, O=C1CC[C@H](NC(=O)Nc2nc3c(s2)-c2c(cnn2-c2ccccc2Cl)C3)CN1, Nc1cc(CCNC(=O)Nc2nc3c(s2)-c2c(cnn2-c2ccccc2C(F)(F)F)C3)nn1C1CCCCC1, CC(C)(C)n1nc(CNC(=O)Nc2nc3c(s2)-c2c(cnn2-c2ccccc2C(F)(F)F)C3)cc1N, O=C(NCc1ccccn1)Nc1nc2c(s1)-c1c(cnn1-c1ccccc1C(F)(F)F)C2, CC(C)(C)c1cc(N)n(CCNC(=O)Nc2nc3c(s2)-c2c(cnn2-c2ccccc2C(F)(F)F)C3)n1, CC(C)NC(=O)Nc1nc2c(s1)-c1c(cnn1-c1ccccc1C(F)(F)F)C2, CCCn1nc(CCNC(=O)Nc2nc3c(s2)-c2c(cnn2-c2ccccc2C(F)(F)F)C3)cc1N, O=C(NCc1ccccc1-n1cccn1)Nc1nc2c(s1)-c1c(cnn1-c1ccccc1Cl)C2, O=C(NCc1ncc[nH]1)Nc1nc2c(s1)-c1c(cnn1-c1ccccc1Cl)C2, CC(C)(C)OC(=O)NCc1ccccc1NC(=O)Nc1nc2c(s1)-c1c(cnn1-c1ccccc1Cl)C2, CCc1noc(CCNC(=O)Nc2nc3c(s2)-c2c(cnn2-c2ccccc2Cl)C3)n1, CC(C)c1nnc(CCNC(=O)Nc2nc3c(s2)-c2c(cnn2-c2ccccc2Cl)C3)o1, CCc1noc(CCNC(=O)Nc2nc3c(s2)-c2c(cnn2-c2ccccc2C(F)(F)F)C3)n1, CN(Cc1cccs1)C(=O)Nc1nc2c(s1)-c1c(cnn1-c1ccccc1C(F)(F)F)C2, O=C(NCCO)Nc1nc2c(s1)-c1c(cnn1-c1ccccc1C(F)(F)F)C2, CCCNC(=O)Nc1nc2c(s1)-c1c(cnn1-c1ccccc1Cl)C2, CCc1cc(=O)n(CCNC(=O)Nc2nc3c(s2)-c2c(cnn2-c2ccccc2C(F)(F)F)C3)[nH]1, O=C(NCCc1cn[nH]c1)Nc1nc2c(s1)-c1c(cnn1-c1ccccc1C(F)(F)F)C2, CNC(=O)Nc1nc2c(s1)-c1c(cnn1-c1ccccc1Br)C2, O=C(Nc1nc2c(s1)-c1c(cnn1-c1ccccc1Cl)C2)N1CCC(n2cnc3ccccc32)CC1, CC(C)(C)OC(=O)CCNC(=O)Nc1nc2c(s1)-c1c(cnn1-c1ccccc1Cl)C2, Cn1nc(CNC(=O)Nc2nc3c(s2)-c2c(cnn2-c2ccccc2C(F)(F)F)C3)cc1O, O=C(NCc1cccc(N2CCNC2=O)c1)Nc1nc2c(s1)-c1c(cnn1-c1ccccc1Cl)C2, O=C(C[C@H]1CCCN1C(=O)OCc1ccccc1)Nc1nc2c(s1)-c1c(cnn1-c1ccccc1Cl)C2, CCc1cnc(CCNC(=O)Nc2nc3c(s2)-c2c(cnn2-c2ccccc2Br)C3)o1, COc1ccccc1C1CCN(C(=O)Nc2nc3c(s2)-c2c(cnn2-c2ccccc2Cl)C3)C1 (configuration not stated), CC(=O)NC1CCN(C(=O)Nc2nc3c(s2)-c2c(cnn2-c2ccccc2Cl)C3)C1 (configuration not stated), Cc1nn(C)cc1CNC(=O)Nc1nc2c(s1)-c1c(cnn1-c1ccccc1C(F)(F)F)C2, Nc1cc(CNC(=O)Nc2nc3c(s2)-c2c(cnn2-c2ccccc2C(F)(F)F)C3)nn1-c1ccccc1
